Reference: patent US20210330611A1, “THERAPY FOR NEUROLOGICAL DISEASES/DISORDERS” (priority 2020, published 2021)
Values joined by “and” are separate entries in the source; they are usually repeats but may differ in a detail not shown here. Equal values may be shown once. Where a name gives a salt, the structure may show the parent alone. Read-outs that look alike come from different tables or passages of the source.

Key:
[1] = tested on: fibrin-induced microglia activation; experiment: Image-based assay of fibrin-induced microglia activation (HTS and dose response); format: cell-based, rat; conditions: for inhibition at 10 µM: Rattus norvegicus, Microglia, read-out: Fibrin % inhibition
[2] = tested on: LPS-induced microglia activation; experiment: Image-based assay of LPS-induced microglia activation (HTS and dose response); format: cell-based, rat; conditions: for inhibition at 10 µM: Rattus norvegicus, Microglia, read-out: LPS % inhibition
[3] = tested on: fibrin- and LPS-induced microglia activation; experiment: cells; format: cell-based, rat
primary rat microglia [4] = experiment: Cell toxicity (dead cells, size <150 μm2) in LPS assay
primary rat microglia [5] = experiment: Cell toxicity (dead cells, size <150 μm2) in coated fibrin (cFib) assay;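 on Fibrin % cell toxicity: share of dead cells sized under 150 µm2 at 10 µM in fibrin-stimulated microglia HTS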
[6] = primary microglia HTS, fibrin stimulation, increased cell size (>800 μm^2) as marker of activation
[7] = 48 h, primary microglia HTS, LPS stimulation, increased cell size (>800 μm^2) as marker of activation
[8] = quadrant by fibrin and LPS inhibition in HTS of 1907 compounds
[9] = primary microglia HTS, LPS stimulation, decreased size (<150 μm^2) as marker of toxicity
[10] = primary microglia HTS, fibrin stimulation, decreased size (<150 μm^2) as marker of toxicity
[11] = primary microglia HTS, fibrin stimulation, activation = cell size >800 μm2
[12] = 48 h, primary microglia HTS, LPS stimulation, activation = cell size >800 μm2
[13] = primary microglia HTS, LPS stimulation, toxicity = cell size <150 μm2
[14] = primary microglia HTS, fibrin stimulation, toxicity = cell size <150 μm2
[15] = primary microglia HTS, LPS stimulation, increased cell size (>800 μm^2) as marker of activation
[16] = primary microglia HTS, 10 μM, fibrin-stimulated, cell size >800 μm^2 as marker of activation
[17] = primary microglia HTS, 10 μM, LPS-stimulated, cell size >800 μm^2 as marker of activation
[18] = HTS of 1907 compounds, quadrant by fibrin and LPS inhibition
[19] = primary microglia HTS, 10 μM, LPS assay, cell size <150 μm^2 as marker of toxicity
[20] = primary microglia HTS, 10 μM, fibrin assay, cell size <150 μm^2 as marker of toxicity
[21] = primary HTS, 10 μM, fibrin-stimulated primary microglia
[22] = primary HTS, 10 μM, LPS-stimulated primary microglia
[23] = primary HTS, 10 μM, LPS assay, dead cells size <150 μm2
[24] = primary HTS, 10 μM, fibrin assay, dead cells size <150 μm2

## CCn1cc(C(=O)O)c(=O)c2ccc(C)nc21 [Nalidixic Acid]
[1]; [6]
  inhibition at 10 µM: -1%
[2]; [7]
  inhibition at 10 µM: 13%
[3]; [8]
  Quadrant (FIG. 5b): Q4
Primary rat microglia [4]; [9]
  LPS % cell toxicity: 1%
Primary rat microglia [5]; [10]
  Fibrin % cell toxicity: 1%

## N=C1NC(=O)N2CC12 (centres unmarked) [Imexon]
[1]; [11]
  inhibition at 10 µM: -3%
[2]; [12]
  inhibition at 10 µM: 12%
[3]; [8]
  Quadrant (FIG. 5b): Q4
Primary rat microglia [4]; [13]
  LPS % cell toxicity: 1%
Primary rat microglia [5]; [14]
  Fibrin % cell toxicity: 1%

## NC(=O)NC(=O)Cc1ccccc1 [Phenacemide]
[1]; [6]
  inhibition at 10 µM: -9%
[2]; [7]
  inhibition at 10 µM: 66%
[3]; [8]
  Quadrant (FIG. 5b): Q1
Primary rat microglia [4]; [9]
  LPS % cell toxicity: 1%
Primary rat microglia [5]; [10]
  Fibrin % cell toxicity: 1%

## CCN(CC)CCOc1ccc2c(c1)C(=O)c1cc(OCCN(CC)CC)ccc1-2 [Tilorone]
[1]; [6]
  inhibition at 10 µM: -21%
[2]; [7]
  inhibition at 10 µM: 60%
[3]; [8]
  Quadrant (FIG. 5b): Q1
Primary rat microglia [4]; [9]
  LPS % cell toxicity: 1%
Primary rat microglia [5]; [10]
  Fibrin % cell toxicity: 0%

## CCN[C@@H]1C[C@H](N)[C@@H](O[C@H]2OC(CN)=CC[C@H]2N)[C@H](O)[C@H]1O[C@H]1OC[C@](C)(O)[C@H](NC)[C@H]1O.CCN[C@@H]1C[C@H](N)[C@@H](O[C@H]2OC(CN)=CC[C@H]2N)[C@H](O)[C@H]1O[C@H]1OC[C@](C)(O)[C@H](NC)[C@H]1O.O=S(=O)(O)O.O=S(=O)(O)O.O=S(=O)(O)O.O=S(=O)(O)O.O=S(=O)(O)O [Netilmicin Sulfate]
[1]; [6]
  Fibrin % inhibition: −6%
[2]; [15]
  LPS % inhibition: 12%
[3]; [8]
  Quadrant (FIG. 5b): Q4
Primary rat microglia [4]; [9]
  LPS % cell toxicity: 0%
Primary rat microglia [5]; [10]
  Fibrin % cell toxicity: 1%

## CCCCCC(C)N (centres unmarked) [Tuaminoheptane Sulfate]
[1]; [16]
  inhibition at 10 µM: -7%
[2]; [17]
  inhibition at 10 µM: 19%
[3]; [18]
  Quadrant (FIG. 5b): Q4
Primary rat microglia [4]; [19]
  LPS % cell toxicity: 0%
Primary rat microglia [5]; [20]
  Fibrin % cell toxicity: 1%

## CCC(NC(C)C)C(O)c1ccc(O)c(O)c1 (centres unmarked) [Isoetarine]
[1]; [11]
  inhibition at 10 µM: 21%
[2]; [12]
  inhibition at 10 µM: 23%
[3]; [8]
  Quadrant (FIG. 5b): Q4
Primary rat microglia [4]; [13]
  LPS % cell toxicity: 0%
Primary rat microglia [5]; [14]
  Fibrin % cell toxicity: 1%

## N[C@H]1CONC1=O [Levcycloserine]
[1]; [11]
  inhibition at 10 µM: 2%
[2]; [12]
  inhibition at 10 µM: 12%
[3]; [8]
  Quadrant (FIG. 5b): Q4
Primary rat microglia [4]; [13]
  LPS % cell toxicity: 0%
Primary rat microglia [5]; [14]
  Fibrin % cell toxicity: 1%

## C[N+](C)(C)CCCCCC[N+](C)(C)C [Hexamethonium]
[1]; [6]
  inhibition at 10 µM: 108%
[2]; [7]
  inhibition at 10 µM: 100%
[3]; [8]
  Quadrant (FIG. 5b): Q2
Primary rat microglia [4]; [9]
  LPS % cell toxicity: 2%
Primary rat microglia [5]; [10]
  Fibrin % cell toxicity: 9%

## CN1CC(=O)N2[C@H](c3ccc4c(c3)OCO4)c3[nH]c4ccccc4c3C[C@@H]2C1=O [Tadalafil]
[1]; [16]
  inhibition at 10 µM: -1%
[2]; [17]
  inhibition at 10 µM: 16%
[3]; [18]
  Quadrant (FIG. 5b): Q4
Primary rat microglia [4]; [19]
  LPS % cell toxicity: 0%
Primary rat microglia [5]; [20]
  Fibrin % cell toxicity: 1%

## Oc1ccc(OCc2ccccc2)cc1 [Monobenzone]
[1]; [6]
  inhibition at 10 µM: 7%
[2]; [7]
  inhibition at 10 µM: 16%
[3]; [8]
  Quadrant (FIG. 5b): Q4
Primary rat microglia [4]; [9]
  LPS % cell toxicity: 0%
Primary rat microglia [5]; [10]
  Fibrin % cell toxicity: 1%

## CCN(CC)CCNC(=O)COc1ccc(OC)cc1 [Mefexamide, Mefexamide Hydrochloride]
[1]; [6]
  Fibrin % inhibition: −13%
[2]; [15]
  LPS % inhibition: −2%
[3]; [8]
  Quadrant (FIG. 5b): Q4
Primary rat microglia [4]; [9]
  LPS % cell toxicity: 0%
Primary rat microglia [5]; [10]
  Fibrin % cell toxicity: 0%

## C=CCN1C[C@H](C(=O)N(CCCN(C)C)C(=O)NCC)C[C@@H]2c3cccc4[nH]cc(c34)C[C@H]21 [Cabergoline]
[1]; [21]
  inhibition at 10 µM: 20%
[2]; [22]
  inhibition at 10 µM: 33%
[3]; primary HTS, 10 μM
  Quadrant (FIG. 5b): Q4
Primary rat microglia [4]; [23]
  LPS % cell toxicity: 1%
Primary rat microglia [5]; [24]
  Fibrin % cell toxicity: 1%

## CN(Cc1ccc(C(C)(C)C)cc1)Cc1cccc2ccccc12 [Butenafine]
[1]; [21]
  inhibition at 10 µM: -4%
[2]; [22]
  inhibition at 10 µM: -8%
[3]; primary HTS, 10 μM
  Quadrant (FIG. 5b): Q4
Primary rat microglia [4]; [23]
  LPS % cell toxicity: 0%
Primary rat microglia [5]; [24]
  Fibrin % cell toxicity: 1%

## NCC1(CC(=O)O)CCCCC1 [Gabapentin]
[2]; [12]
  inhibition at 10 µM: 19%
[3]; [8]
  Quadrant (FIG. 5b): Q4
Primary rat microglia [4]; [13]
  LPS % cell toxicity: 1% and 0%
Primary rat microglia [5]; [14]
  Fibrin % cell toxicity: 1%

## Nc1nc2ncc(CNc3ccc(C(=O)N[C@@H](CCC(=O)O)C(=O)O)cc3)nc2c(=O)[nH]1 [Folic Acid]
[2]; [12]
  inhibition at 10 µM: 22%
[3]; [8]
  Quadrant (FIG. 5b): Q4
Primary rat microglia [4]; [13]
  LPS % cell toxicity: 0% and 1%
Primary rat microglia [5]; [14]
  Fibrin % cell toxicity: 1%

## Carboplatin
[2]; [22]
  LPS % inhibition: 4% and 7%
[3]; primary HTS, 10 μM
  Quadrant (FIG. 5b): Q4
Primary rat microglia [4]; [23]
  LPS % cell toxicity: 0%
Primary rat microglia [5]; [24]
  Fibrin % cell toxicity: 1%

## CCC(Cc1c(I)cc(I)c(N)c1I)C(=O)O (centres unmarked) [lopanic Acid]
[2]; LPS-induced microglia activation, dose response, read-out: LPS IC50 (uM) (Suppl. Table 7)
  IC50: > 20 µM
[3]; [18]
  Quadrant (FIG. 5b): Q3
[3]; hit classification in microglia HTS
  Cherry-picked Hit (Suppl. Table 7): HIT (Hits were defined as molecules that exhibited greater than 50% inhibition of either fibrin or LPS activation)
Primary rat microglia [4]; read-out: Cell Toxicity IC50 (uM) [LPS assay], LPS assay
  IC50: > 20 µM
Primary rat microglia [5]; read-out: Cell Toxicity IC50 (uM) [cFib assay], cFib assay
  IC50: > 20 µM

## CC(C)(O/N=C(\C(=O)N[C@@H]1C(=O)N2C(C(=O)[O-])=C(C[n+]3ccccc3)CS[C@H]12)c1csc(N)n1)C(=O)O [Ceftazidime]
[2]; [22]
  inhibition at 10 µM: 17%
  LPS % inhibition: 30%
[3]; primary HTS, 10 μM
  Quadrant (FIG. 5b): Q4
Primary rat microglia [4]; [23]
  LPS % cell toxicity: 1%
Primary rat microglia [5]; [24]
  Fibrin % cell toxicity: 1%

## CC(=O)/N=c1/sc(S(N)(=O)=O)nn1C [Methazolamide]
[2]; [7]
  inhibition at 10 µM: 10%
[3]; [8]
  Quadrant (FIG. 5b): Q4
Primary rat microglia [4]; [9]
  LPS % cell toxicity: 0%
Primary rat microglia [5]; [10]
  Fibrin % cell toxicity: 1%

## Benzalkonium Chloride
[2]; [15]
  LPS % inhibition: 122%
[3]; [8]
  Quadrant (FIG. 5b): Q2
Primary rat microglia [4]; [9]
  LPS % cell toxicity: 31%
Primary rat microglia [5]; [10]
  Fibrin % cell toxicity: 71%

## OC[C@H]1O[C@@H](n2cnc3c(O)ncnc32)[C@H](O)[C@@H]1O [Inosine]
[1]; [11]
  inhibition at 10 µM: -31%
[1]; [6]
  inhibition at 10 µM: 111%
[2]; [12]
  inhibition at 10 µM: -11%
[2]; [7]
  inhibition at 10 µM: 115%
Primary rat microglia [4]; [13]
  LPS % cell toxicity: 0%
Primary rat microglia [4]; [9]
  LPS % cell toxicity: 2%
Primary rat microglia [5]; [14]
  Fibrin % cell toxicity: 1%
Primary rat microglia [5]; [10]
  Fibrin % cell toxicity: 7%

## CN(C)CCCC1(c2ccc(F)cc2)OCc2cc(C#N)ccc21 (centres unmarked) [Citalopram]
[2]; [22]
  inhibition at 10 µM: 10%
  LPS % inhibition: 8%
[3]; primary HTS, 10 μM
  Quadrant (FIG. 5b): Q4
Primary rat microglia [4]; [23]
  LPS % cell toxicity: 0%
Primary rat microglia [5]; [24]
  Fibrin % cell toxicity: 0%

## CCN1CCCC1CNC(=O)c1cc(S(N)(=O)=O)ccc1OC (centres unmarked) [Sulpiride]
[2]; [17]
  inhibition at 10 µM: 11%
  LPS % inhibition: 7%
[3]; [18]
  Quadrant (FIG. 5b): Q4
Primary rat microglia [4]; [19]
  LPS % cell toxicity: 0%
Primary rat microglia [5]; [20]
  Fibrin % cell toxicity: 1%

## CC[C@H](C)[C@H]1O[C@]2(CC[C@@H]1C)C[C@@H]1C[C@@H](C/C=C(\C)[C@@H](O[C@H]3C[C@H](OC)[C@@H](O[C@H]4C[C@H](OC)[C@@H](O)[C@H](C)O4)[C@H](C)O3)[C@@H](C)/C=C/C=C3\CO[C@@H]4[C@H](O)C(C)=C[C@@H](C(=O)O1)[C@]34O)O2 [Ivermectin]
[2]; primary microglia HTS, LPS stimulation, activation = cell size >800 μm2
  LPS % inhibition: 10% and 19%
[3]; [8]
  Quadrant (FIG. 5b): Q4
Primary rat microglia [4]; [13]
  LPS % cell toxicity: 0%
Primary rat microglia [5]; [14]
  Fibrin % cell toxicity: 1% and 0%
